Converted amounts (≈) assume the structure as drawn.
What was measured:
[1] = system: S. aureus (20666); experiment: MIC, Macro-broth dilution method; type: cell-based, Staphylococcus aureus
Source text: (§1) The in-vitro potency was established by minimum inhibitory concentration (MIC) determinations of the compound PM181104 against bacterial strains, by using the Macro-broth dilution method as per National Committee for Clinical Laboratory Standards (2000) guidelines [Journal of Anti-microbial Chemotherapy, 2002, 50, 125-128 (Cross Reference 8: Methods for Dilution Antimicrobial Susceptibility Tests for Bacteria that Grow Aerobically-Fifth Edition: Approved Standard M7-A5. NCCLS, Wayne, Pa., USA)]. Unless stated otherwise, Mueller-Hinton broth was used as nutrient medium for the assay. Linezolid (manufactured by Glenmark Pharma Ltd; Batch no: K2005028) was used as known standard in all in-vitro experiments. For preparation of the stock solution the compound PM181104 was dissolved in chloroform (5% of the total required volume) and diluted using methanol (95% of the total required volume).

[2] = system: S. aureus (E710); experiment: MIC, Macro-broth dilution method; type: cell-based, Staphylococcus aureus; conditions: S. aureus MRSA E710
Source text: as §1

[3] = system: S. aureus Bom-MRSA2; experiment: MIC, Macro-broth dilution method; type: cell-based, Staphylococcus aureus
Source text: as §1

[4] = system: S. aureus KEM-MRSA11; experiment: MIC, Macro-broth dilution method; type: cell-based, Staphylococcus aureus
Source text: as §1

[5] = system: S. aureus KEM-MRSA18; experiment: MIC, Macro-broth dilution method; type: cell-based, Staphylococcus aureus
Source text: as §1

[6] = system: S. aureus KEM-MRSA23; experiment: MIC, Macro-broth dilution method; type: cell-based, Staphylococcus aureus
Source text: as §1

[7] = system: S. aureus KEM-MRSA24; experiment: MIC, Macro-broth dilution method; type: cell-based, Staphylococcus aureus
Source text: as §1

[8] = system: S. aureus KEM-MRSA25; experiment: MIC, Macro-broth dilution method; type: cell-based, Staphylococcus aureus
Source text: as §1

[9] = system: S. aureus Lilavati-MRSA3; experiment: MIC, Macro-broth dilution method; type: cell-based, Staphylococcus aureus
Source text: as §1

[10] = system: S. aureus SG511; experiment: MIC, Macro-broth dilution method; type: cell-based, Staphylococcus aureus
Source text: as §1

[11] = system: S. epidermidis 10221II W; experiment: MIC, Macro-broth dilution method; type: cell-based, Staphylococcus epidermidis
Source text: as §1

[12] = system: S. epidermidis 32965; experiment: MIC, Macro-broth dilution method; type: cell-based, Staphylococcus epidermidis
Source text: as §1

[13] = system: S. epidermidis 5744IW; experiment: MIC, Macro-broth dilution method; type: cell-based, Staphylococcus epidermidis
Source text: as §1

[14] = system: S. epidermidis 6098; experiment: MIC, Macro-broth dilution method; type: cell-based, Staphylococcus epidermidis
Source text: as §1

[15] = system: S. epidermidis 6493II(2)W; experiment: MIC, Macro-broth dilution method; type: cell-based, Staphylococcus epidermidis
Source text: as §1

[16] = system: S. epidermidis 823; experiment: MIC, Macro-broth dilution method; type: cell-based, Staphylococcus epidermidis
Source text: as §1

[17] = system: S. epidermidis Pat 01 IV; experiment: MIC, Macro-broth dilution method; type: cell-based, Staphylococcus epidermidis
Source text: as §1

[18] = system: E. faecium (O2-D3IP1); experiment: MIC, Macro-broth dilution method; type: cell-based, Enterococcus faecium
Source text: as §1

[19] = system: E. faecium (VR-1); experiment: MIC, Macro-broth dilution method; type: cell-based, Enterococcus faecium
Source text: as §1

[20] = system: E. faecium 4045H; experiment: MIC, Macro-broth dilution method; type: cell-based, Enterococcus faecium
Source text: as §1

[21] = system: E. faecium D 18F; experiment: MIC, Macro-broth dilution method; type: cell-based, Enterococcus faecium
Source text: as §1

[22] = system: E. faecium D-59; experiment: MIC, Macro-broth dilution method; type: cell-based, Enterococcus faecium
Source text: as §1

[23] = system: B. subtilis ATCC 6633; experiment: MIC, Macro-broth dilution method; type: cell-based, Bacillus subtilis
Source text: as §1

[24] = system: B. subtilis; experiment: MIC, Macro-broth dilution method; type: cell-based, Bacillus subtilis
Source text: as §1

[25] = system: B. megaterium FH 1127; experiment: MIC, Macro-broth dilution method; type: cell-based, Bacillus megaterium
Source text: as §1

[26] = system: B. firmus; experiment: MIC, Macro-broth dilution method; type: cell-based, Bacillus firmus
Source text: as §1

[27] = system: S. aureus E-710; experiment: Lung infection model; type: in vivo, Balb/C mice; conditions: 5 mg/kg intravenously at 24 and 36 hours post infection, lungs collected at 48 hours
Source text: (§2) The in-vivo potency was established by protection dose (PD) determinations of the compound PM181104 for its antibiotic activity in three animal models using either male or female Balb/C mice.
(§3) The models used were the general purpose efficacy testing models and organ/tissue specific efficacy testing models. The general purpose efficacy testing models used were systemic infection model (septicemia), and localized infection model (neutropenic thigh model). The Organ/Tissue specific infection models used for efficacy testing were kidney, lung infection, and skin abscess model.
Balb/C mice were rendered neutropenic by intraperitoneally administering 200 mg/kg cyclophosphamide four days and two days prior to infection. On the day of infection, the mice were anesthetized and infected with S. aureus E-710 log-phase culture suspension having bacterial density of approximately 10^6 to 10^7 cfu/ml. 24 and 36 hours post infection the first and second respective dose of drug was administered intravenously. 48 hours post infection, the animals were humanely euthanized and their lungs were aseptically collected to determine the viable count of bacteria. In this model, PM181104 was tested at 5 mg/kg dose prepared in cremophor-ethanol formulation as described in example 14. Two standard antibiotics viz. Linezolid (80 mg/kg single dose at 24 hours post infection) and Vancomycin (110 mg/kg, two doses at 24 and 48 hours post infection) were used as positive controls.

[28] = system: methicillin resistant S. aureus E710 (MRSA); type: in vivo, Balb/C mice; conditions: 5 mg/kg intravenously two hours post infection
Source text: as §2, §3
Balb/C mice were infected subcutaneously with approximately 10^8 cfu of an overnight grown culture of methicillin resistant S. aureus E710 (MRSA). The bacteria were suspended in 1:1 mixture of 2% cytodex beads in normal saline (0.85% sodium chloride). PM181104 was prepared in cremophor-ethanol formulation as described in example 14. The solution was administered intravenously at 2.5 mg, 5 mg and 10 mg/kg doses, two hours post infection. Each experimental group consisted of six animals. Following abscess formation the animals were sacrificed and abscess harvested to determine the viable counts. […] Linezolid (manufactured by Glenmark Pharma Ltd; Batch no: K2005028) at 50 mg/kg dose.

`C=C(NC(=O)C(=C)NC(=O)C1CCCN1C(=O)c1nc(-c2ccc(-c3nc(C(=O)NC(=C)C(=O)NC(C)C(N)=O)cs3)c(-c3csc(C4Cc5nc(cs5)C(=O)NC(Cc5ccccc5)C5=NC(CS5)C(=O)NC(Cc5ccc(O)cc5)C(=O)N5CCCC5c5nc(cs5)C(=O)N4)n3)n2)oc1C)C(N)=O` (centres unmarked) [PM181104] was tested, and the MIC [1] was 0.01563 µg/mL (≈ 0.0103 µM), the MIC [2] was 0.03125 µg/mL (≈ 0.0206 µM) and the MIC [3] was 0.0625 µg/mL (≈ 0.0412 µM). It also gave an MIC [4] of 0.0625 µg/mL (≈ 0.0412 µM), an MIC [5] of 0.01563 µg/mL (≈ 0.0103 µM) and an MIC [6] of 0.01563 µg/mL (≈ 0.0103 µM). For the same compound, the MIC [7] was 0.00781 µg/mL (≈ 0.00515 µM), the MIC [8] was 0.01563 µg/mL (≈ 0.0103 µM) and the MIC [9] was 0.01563 µg/mL (≈ 0.0103 µM). The MIC [10] was 0.0625 µg/mL (≈ 0.0412 µM), the MIC [11] was 0.00781 µg/mL (≈ 0.00515 µM) and the MIC [12] was 0.03125 µg/mL (≈ 0.0206 µM). For the same compound, the MIC [13] was 0.01563 µg/mL (≈ 0.0103 µM), the MIC [14] was 0.0625 µg/mL (≈ 0.0412 µM) and the MIC [15] was 0.0625 µg/mL (≈ 0.0412 µM). It also gave an MIC [16] of 0.03125 µg/mL (≈ 0.0206 µM), an MIC [17] of 0.0625 µg/mL (≈ 0.0412 µM) and an MIC [18] of 0.00391 µg/mL (≈ 0.00258 µM). It also gave an MIC [19] of 0.00781 µg/mL (≈ 0.00515 µM), an MIC [20] of 0.00781 µg/mL (≈ 0.00515 µM) and an MIC [21] of 0.00781 µg/mL (≈ 0.00515 µM). It also gave an MIC [22] of 0.00781 µg/mL (≈ 0.00515 µM), an MIC [23] of 0.00781 µg/mL (≈ 0.00515 µM) and an MIC [24] of 0.01563 µg/mL (≈ 0.0103 µM). For the same compound, the MIC [25] was 0.00781 µg/mL (≈ 0.00515 µM), the MIC [26] was 0.01563 µg/mL (≈ 0.0103 µM) and the “activity profile in lung infection” value [27] was “bacteriostatic activity”. For the same compound, the “difference in the bacterial count in the lungs as compared to untreated control animals” value [27] was “approximately 2 log” and the “decrease in bacterial count in abscess” value [28] was “approximately 1 log”.
